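Tested at 5 concentrations; 48 h exposure; 96-well plates; endpoints linearly interpolated, else capped at highest concentration. Here, GI50 denotes the concentration required for 50% inhibition of growth.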 Active and inactive are the calls of the source. Cut-off read from the data, not from the text of the source: active = GI50 up to about 1.1 µM and inactive = higher.
Key:
Experiment in all cases: NCI-60 cell line screen, 48 h
[1] = tested on: DLD-1
[2] = tested on: DMS-114
[3] = tested on: HOP-18
[4] = tested on: KM-20L2
[5] = tested on: LXFL 529
[6] = tested on: RXF 631
[7] = tested on: XF498
[8] = tested on: DMS-273
[9] = tested on: M19-MEL

Row | SMILES | GI50 [1] | GI50 [2] | GI50 [3] | GI50 [4] | GI50 [5] | GI50 [6] | GI50 [7] | GI50 [8] | GI50 [9]
1 | COc1nc(N)c(C(=O)CCl)c(=O)n1C | 13.2 µM (inactive) | 16.8 µM (inactive) | 16.4 µM (inactive) | 18.3 µM (inactive) | 13.6 µM (inactive) | 15.3 µM (inactive) | 16.4 µM (inactive) |  | 
2 | O=C1c2ccccc2OCC1/C=N/O (configuration not stated) | > 91.4 µM (inactive) | 36.4 µM (inactive) | > 100 µM (inactive) |  |  |  | > 100 µM (inactive) | 99.8 µM (inactive) | 70.1 µM (inactive)
3 | Cn1cc(NC(=O)c2cc(NC(=O)CCCCCCCC(=O)Nc3cc(C(=O)Nc4cc(C(=O)NCCC(=N)N)n(C)c4)n(C)c3)cn2C)cc1C(=O)NCCC(=N)N | 30.9 µM (inactive) | 4.03 µM (inactive) | 34 µM (inactive) | > 100 µM (inactive) | 12.4 µM (inactive) | 56.9 µM (inactive) | 29.2 µM (inactive) | 11.2 µM (inactive) | 5.43 µM (inactive)
4 | COc1cc(/C=C(/C#N)C(N)=O)ccc1O | > 100 µM (inactive) | > 100 µM (inactive) | > 40.7 µM (inactive) | > 100 µM (inactive) |  |  | > 100 µM (inactive) | > 100 µM (inactive) | > 100 µM (inactive)
5 | C#CCC[C@@H]1O[C@@]1(C)CC/C=C(\C)CC/C=C/C=O |  | 14.6 µM (inactive) |  | 36.4 µM (inactive) | 20.1 µM (inactive) |  | 24.2 µM (inactive) | 20 µM (inactive) | 24.2 µM (inactive)
6 | O=C(/N=C(/Nc1ccccc1)SCS/C(=N\C(=O)c1ccco1)Nc1ccccc1)c1ccco1 | 44 µM (inactive) | 52 µM (inactive) |  | > 100 µM (inactive) | > 100 µM (inactive) | 94.4 µM (inactive) | 25.4 µM (inactive) | 37.8 µM (inactive) | > 100 µM (inactive)
7 | CCN(CC)c1ccc(/N=N\c2ccc(-c3nc4ccc[n+](C)c4s3)cc2)cc1 |  |  | 16.7 µM (inactive) | 6.78 µM (inactive) | 3.24 µM (inactive) |  |  | 3.65 µM (inactive) | 3.55 µM (inactive)
8 | CN(C)CCC1(C2=CCCC2)CC/C(=C\c2ccc3c(c2)OCO3)C1=O (configuration not stated) | 17.1 µM (inactive) | 14.8 µM (inactive) | 13.6 µM (inactive) | 14.2 µM (inactive) | 12.9 µM (inactive) | 15.2 µM (inactive) |  |  | 18.6 µM (inactive)
9 | CC1=C2C(O)C(C(C)C(=O)NCC(C)C)CCC2(C)C=CC1=O (configuration not stated) | > 100 µM (inactive) | > 100 µM (inactive) | > 100 µM (inactive) | > 100 µM (inactive) |  |  | > 100 µM (inactive) | > 100 µM (inactive) | > 100 µM (inactive)
10 | O=C1N[C@@H]2CCCC[C@@H]2C12CCCCC2 | > 100 µM (inactive) |  | > 100 µM (inactive) | > 100 µM (inactive) | > 100 µM (inactive) | > 100 µM (inactive) | > 100 µM (inactive) |  | > 100 µM (inactive)
11 | NC(=O)CCC(N=C(N)c1csc(C2OC(CO)C(O)C2O)n1)C(=O)O (configuration not stated) | > 100 µM (inactive) | > 100 µM (inactive) | < 0.01 µM (active) | > 100 µM (inactive) | > 100 µM (inactive) |  | > 100 µM (inactive) | > 100 µM (inactive) | 
12 | Cc1cccc(Cl)c1NC(N)=S | 57.7 µM (inactive) | 18.5 µM (inactive) | 11.1 µM (inactive) | 50.8 µM (inactive) | 31.8 µM (inactive) | 35.9 µM (inactive) |  | 20.5 µM (inactive) | > 100 µM (inactive)
13 | C=CC12CN(C)C3C4COC(CC41)C1(C(=O)Nc4ccccc41)C32 (configuration not stated) | 198 µM (inactive) | > 144 µM (inactive) | > 200 µM (inactive) | > 151 µM (inactive) |  |  | 21.5 µM (inactive) | > 200 µM (inactive) | > 148 µM (inactive)
14 | O=c1cccccc1NCCOCCNc1cccccc1=O | > 100 µM (inactive) | > 100 µM (inactive) | 29 µM (inactive) | > 100 µM (inactive) | > 100 µM (inactive) |  |  | > 100 µM (inactive) | > 100 µM (inactive)
15 | Cc1ccc2nc(/C(=C/c3ccc(/C=C(\NC(=O)c4ccccc4)c4nc5ccc(C)cc5[nH]4)c(C)c3)NC(=O)c3ccccc3)[nH]c2c1 | 3.02 µM (inactive) | 7.57 µM (inactive) |  | 20.3 µM (inactive) | 1.5 µM (inactive) | 19.2 µM (inactive) | 3.76 µM (inactive) | 22.6 µM (inactive) | 4.36 µM (inactive)
16 | CC#N.O[C@@H]1CCCC[C@H]1O.O[C@@H]1CCCC[C@H]1O.[TeH2] | 32.2 µM (inactive) | 44.7 µM (inactive) | 23.3 µM (inactive) | 69.7 µM (inactive) | 37.7 µM (inactive) | 22.8 µM (inactive) |  | 18.1 µM (inactive) | 21.5 µM (inactive)
17 | CCCCCCCCCCCCCCNCC(OC)OC | 14.6 µM (inactive) | 14 µM (inactive) | 13.3 µM (inactive) | 14.4 µM (inactive) | 16.3 µM (inactive) | 15.2 µM (inactive) | 16.7 µM (inactive) | 17.5 µM (inactive) | 18.1 µM (inactive)
18 | C=C(C)C(=O)OC1C/C(CO)=C\C(O)C/C(C)=C/C2OC(=O)C(=C)C21 (configuration not stated) |  | 23.7 µM (inactive) | 31.3 µM (inactive) | 30.3 µM (inactive) | 16.9 µM (inactive) | 18.4 µM (inactive) | 15.2 µM (inactive) | 27.5 µM (inactive) | 25.6 µM (inactive)
19 | NS(=O)(=O)c1ccc(NC(=O)c2cccc3cc4ccccc4nc23)cc1 | 17.1 µM (inactive) | 97.7 µM (inactive) | > 100 µM (inactive) | 12.6 µM (inactive) | 25 µM (inactive) | 29.2 µM (inactive) | 49.7 µM (inactive) | 9.44 µM (inactive) | 37.2 µM (inactive)
20 | O=S(=O)(c1ccccc1)c1nccs1 | > 100 µM (inactive) | > 100 µM (inactive) | > 100 µM (inactive) | > 100 µM (inactive) | > 100 µM (inactive) |  | > 100 µM (inactive) | > 100 µM (inactive) | > 100 µM (inactive)
21 | COC(=O)c1sc(C(=O)OC)c2c1C[S+]([O-])C2 | > 100 µM (inactive) | > 100 µM (inactive) | > 100 µM (inactive) | > 100 µM (inactive) | > 100 µM (inactive) | > 100 µM (inactive) | 38.7 µM (inactive) | > 100 µM (inactive) | > 100 µM (inactive)
22 | NNC(=O)N/N=C1/C(=O)N(c2ccc(Cl)c(Cl)c2)C(=O)C(=O)C1c1nc2ccccc2o1 (configuration not stated) | > 100 µM (inactive) | > 100 µM (inactive) | > 100 µM (inactive) | > 100 µM (inactive) | > 100 µM (inactive) | 76.4 µM (inactive) |  | > 100 µM (inactive) | > 100 µM (inactive)
23 | CCCc1nc(NC#N)nc(C(=O)NC23CC4CC(CC(C4)C2)C3)c1C | > 100 µM (inactive) | > 100 µM (inactive) | > 100 µM (inactive) | > 100 µM (inactive) | > 100 µM (inactive) |  |  | > 100 µM (inactive) | > 100 µM (inactive)
